Assay: Hematology assays in cynomolgus monkeys (Example 45)
Assay type: in vivo
Protocol: Groups, each consisting of two male and three female monkeys, were injected subcutaneously with ISIS 416838, ISIS 416850, ISIS 416858, ISIS 416864, or ISIS 417002 in escalating doses. Antisense oligonucleotide was administered to the monkeys at 5 mg/kg three times per a week for week 1; 5 mg/kg twice per week for weeks 2 and 3; 10 mg/kg three times per week for week 4; 10 mg/kg twice per week for weeks 5 and 6; 25 mg/kg three times per week for week 7; and 25 mg/kg twice per week for weeks 8, 9, 10, 11, and 12. One control group, consisting of two male and three female monkeys, was injected subcutaneously with PBS according to the same dosing regimen. An additional experimental group, consisting of two male and three female monkeys, was injected subcutaneously with ISIS 416850 in a chronic, lower dose regimen. Antisense oligonucleotide was administered to the monkeys at 5 mg/kg three times per week for week 1; 5 mg/kg twice per week for week 2 and 3; 10 mg/kg three times per week for week 4; and 10 mg/kg twice per week for weeks 5 to 12. Body weights were measured weekly. Blood samples were collected 14 days and 5 days before the start of treatment and subsequently once per week for Factor 11 protein activity analysis in plasma, fibrinogen measurement, PT and aPTT measurements, bleeding times, and measurement of various hematologic factors. On day 85, the monkeys were euthanized by exsanguination while under deep anesthesia, and organs harvested for further analysis.
The ISIS oligonucleotide, ISIS 416850, given with the chronic dose regimen is distinguished from the other oligonucleotides with an asterisk (*).

[1] = day 8, chronic dose regimen (*)
[2] = day 15, chronic dose regimen (*)
[3] = day 15, escalating dose regimen
[4] = day 22, chronic dose regimen (*)
[5] = day 22, escalating dose regimen
[6] = day 29, chronic dose regimen (*)
[7] = day 29, escalating dose regimen
[8] = day 36, chronic dose regimen (*)
[9] = day 36, escalating dose regimen
[10] = day 43, chronic dose regimen (*)

## ISIS 416850: MOE gapmer, nucleobases 1275 to 1318 of SEQ ID NO: 1 (Table 8) (antisense TGCACAGTTTCTGGCAGGCC; MOE gapmer, wing and gap sizes not given here)
Day 64, escalating dose regimen
  MCH: 22 pg
Day 71, escalating dose regimen
  MCH: 23 pg
Day 78, escalating dose regimen
  MCH: 23 pg
Day 85, escalating dose regimen
  MCH: 22 pg
Day 8
  basophils: 0.2%
  eosinophils: 1.1%
  lymphocytes: 39%
  monocytes: 1.8%
  neutrophils: 57%
  platelet count: 548000 µL⁻¹
  reticulocytes: 1.2%
[1]
  MCH: 23 pg
  MCHC: 29 g/dL
  MCV: 79 fL
  RBC count: 5.5e+06 µL⁻¹
  WBC count: 13000 µL⁻¹
  basophils: 0.3%
  eosinophils: 0.5%
  hematocrit: 43%
  hemoglobin: 12.5 g/dL
  lymphocytes: 44%
  monocytes: 1.8%
  neutrophils: 53%
  platelet count: 401000 µL⁻¹
  reticulocytes: 1.1%
Day 8, escalating dose regimen
  MCH: 23 pg
  MCHC: 29 g/dL
  MCV: 80 fL
  RBC count: 5.4e+06 µL⁻¹
  WBC count: 10000 µL⁻¹
  hematocrit: 43%
  hemoglobin: 12.4 g/dL
Day 15
  basophils: 0.2%
  eosinophils: 1.0%
  lymphocytes: 38%
  monocytes: 2.0%
  neutrophils: 58%
  platelet count: 559000 µL⁻¹
  reticulocytes: 1.9%
[2]
  MCH: 23 pg
  MCHC: 30 g/dL
  MCV: 75 fL
  RBC count: 5.3e+06 µL⁻¹
  WBC count: 16000 µL⁻¹
  basophils: 0.2%
  eosinophils: 0.2%
  hematocrit: 40%
  hemoglobin: 12.2 g/dL
  lymphocytes: 24%
  monocytes: 1.5%
  neutrophils: 73%
  platelet count: 396000 µL⁻¹
  reticulocytes: 1.0%
[3]
  MCH: 23 pg
  MCHC: 30 g/dL
  MCV: 76 fL
  RBC count: 5.3e+06 µL⁻¹
  WBC count: 9000 µL⁻¹
  hematocrit: 40%
  hemoglobin: 12.1 g/dL
Day 22
  basophils: 0.2%
  eosinophils: 0.7%
  lymphocytes: 39%
  monocytes: 2.4%
  neutrophils: 57%
  platelet count: 466000 µL⁻¹
  reticulocytes: 1.9%
[4]
  MCH: 23 pg
  MCHC: 29 g/dL
  MCV: 79 fL
  RBC count: 5.1e+06 µL⁻¹
  WBC count: 15000 µL⁻¹
  basophils: 0.1%
  eosinophils: 0.5%
  hematocrit: 40%
  hemoglobin: 11.7 g/dL
  lymphocytes: 33%
  monocytes: 1.9%
  neutrophils: 64%
  platelet count: 347000 µL⁻¹
  reticulocytes: 1.0%
[5]
  MCH: 24 pg
  MCHC: 28 g/dL
  MCV: 83 fL
  RBC count: 5e+06 µL⁻¹
  WBC count: 10000 µL⁻¹
  hematocrit: 41%
  hemoglobin: 11.6 g/dL
Day 29
  basophils: 0.2%
  eosinophils: 1.2%
  lymphocytes: 43%
  monocytes: 2.7%
  neutrophils: 53%
  platelet count: 475000 µL⁻¹
  reticulocytes: 2.5%
[6]
  MCH: 23 pg
  MCHC: 28 g/dL
  MCV: 82 fL
  RBC count: 5.2e+06 µL⁻¹
  WBC count: 14000 µL⁻¹
  basophils: 0.3%
  eosinophils: 0.8%
  hematocrit: 42%
  hemoglobin: 12.0 g/dL
  lymphocytes: 53%
  monocytes: 2.7%
  neutrophils: 42%
  platelet count: 370000 µL⁻¹
  reticulocytes: 1.4%
[7]
  MCH: 23 pg
  MCHC: 28 g/dL
  MCV: 83 fL
  RBC count: 4.9e+06 µL⁻¹
  WBC count: 11000 µL⁻¹
  hematocrit: 41%
  hemoglobin: 11.5 g/dL
Day 36
  basophils: 0.3%
  eosinophils: 1.7%
  lymphocytes: 39%
  monocytes: 2.1%
  neutrophils: 57%
  platelet count: 505000 µL⁻¹
  reticulocytes: 2.2%
[8]
  MCH: 23 pg
  MCHC: 30 g/dL
  MCV: 76 fL
  RBC count: 5.3e+06 µL⁻¹
  WBC count: 16000 µL⁻¹
  basophils: 0.1%
  eosinophils: 0.4%
  hematocrit: 41%
  hemoglobin: 12.3 g/dL
  lymphocytes: 26%
  monocytes: 1.5%
  neutrophils: 72%
  platelet count: 379000 µL⁻¹
  reticulocytes: 1.3%
[9]
  MCH: 23 pg
  MCHC: 29 g/dL
  MCV: 80 fL
  RBC count: 5.3e+06 µL⁻¹
  WBC count: 10000 µL⁻¹
  hematocrit: 42%
  hemoglobin: 12.2 g/dL
Day 43
  basophils: 0.3%
  eosinophils: 1.2%
  lymphocytes: 45%
  monocytes: 2.6%
  neutrophils: 50%
  platelet count: 490000 µL⁻¹
  reticulocytes: 1.6%
[10]
  MCH: 23 pg
  MCHC: 30 g/dL
  MCV: 77 fL
  RBC count: 5.2e+06 µL⁻¹
  WBC count: 15000 µL⁻¹
  basophils: 0.2%
  eosinophils: 0.4%
  hematocrit: 40%
  hemoglobin: 11.8 g/dL
  lymphocytes: 36%
